These results are taken from US20240108745A1, “BIOACTIVE SUBSTANCE CONJUGATE, PREPARATION METHOD THEREFOR AND USE THEREOF” (MEDILINK THERAPEUTICS (SUZHOU) CO., LTD., priority 2021, published 2024).

Molecules are shown by their SMILES. Read-outs that look alike come from different tables or passages of the source.

The test system of one data set is HCC1806 cells. Nature of the data set: Assay I of bioactive molecules on cell viability in vitro (CCK8). The format is cell-based. The conditions noted are these: Homo sapiens, HCC1806, 72 h; 7500 cells/well, 3 days; read-out: EC50(nM), killing of HCC1806 cells. As for the experimental part:
(§1) Tumor cells were first cultured; the bioactive molecules of the present disclosure were co-cultured with tumor cells, and then CCK8 reagent (Dojindo Laboratories (Shanghai), Cat: CK04, Lot: JJ744) was added, and the activity of dehydrogenase in mitochondria was detected by reading (detection wavelength 450 nm) on a microplate reader (manufacturer: Molecular Devices, model: SpectraMax M2), to evaluate the inhibitory effect of bioactive molecules on cell proliferation.
(§2) In vitro cell viability assay method: bioactive molecules (12 concentration gradients) were diluted with corresponding assay medium (containing 2% FBS). The tumor cells were digested by conventional methods using trypsin, and cells in tube were collected and counted, then resuspended in the corresponding assay media (containing 2% FBS). The diluted bioactive molecules were added to a 96-well plate, followed by the cells. Then, 20 μL of CCK8 reagent was added to each well, and the reaction was carried out for 4 h, then the plate was read on a microplate reader (detection wavelength was 450 nm). The experimental results are shown in Tables 6.1, 6.2, 6.3, 6.4, and 6.5.

A further data set deals with PANC-1 cells. Described as above. Type of data set: cell-based. Conditions: Homo sapiens, read-out: EC50(nM), killing of PANC-1 cells. As for the experimental part:
as §1, §2

The test system of another data set is NCl-H322M cells. Described as above. Conditions: Homo sapiens, read-out: EC50(nM), killing of NCl-H322M cells. The format is cell-based. The protocol:
as §1, §2

Another data set relates to NCl-H358 cells. The description is as above. Type of data set: cell-based. The conditions noted are these: Homo sapiens, read-out: EC50(nM), killing of NCl-H358 cells. The protocol:
as §1, §2

A further data set relates to HT29 cells. The description is as above. Type of data set: cell-based. The conditions noted are these: Homo sapiens, HT-29, CCK8; read-out: EC50(nM), killing of HT29 cells. As for the experimental part: as §1, §2
Data set [1] can be described thus: Tumor tissue distribution of antibody drug conjugates in HT29 xenografts (A1.9 and ADC in plasma/serum and tumor). Type of data set: in vivo, BALB/c Nude mice. The conditions noted are these: BALB/c Nude, mouse, intravenous, 10 mg/kg, HT29 model, read-out: distribution difference of A1.9 in tumors compared with plasma. The protocol:
Human colon cancer HT29 cells were purchased from ATCC. HT29 cells were adherently cultured in a […] culture dish, and the culture conditions were 1640 media containing 10% fetal bovine serum, and the cells were cultured at 37° C. in an incubator containing 5% CO2. When cells were in exponential growth phase, cells were digested with trypsin, harvested, counted, and inoculated.
After adapting to the laboratory environment for 2-5 days, BALB/c Nude mice were subcutaneously inoculated with HT29 cells in the right rib, with an inoculation amount of 5×10^6 cells/mouse and an inoculation volume of 0.2 ml (containing 50% Matrigel). The experiment was carried out when the tumor grew to about 200-300 mm^3.
The tumor tissue pieces were sheared into small size on ice, weighed and transferred to a grinding tube. The tissue homogenate was prepared by grinding them with normal saline solution at 1:5 (w/v); tissue homogenate supernatant was prepared by centrifugation for 10 min at 2˜8° C. and 1800× g, and then stored at −15˜−25° C. for use. Before use, it was taken out and left at 15-25° C., naturally warmed to room temperature, and then used.
For the analysis method of A1.9, refer to Example 6.9. […]

For data set [2] the following is noted: human plasma 37° C., ADC 200 μg/mL, A1.9 released from B7H3-ADC-07(DAR8), DXD from B7H3-C1-ADC-21(DAR4). As for the experimental part: The appropriate concentration of internal standard stock solution was prepared with DMSO, and then acetonitrile or other reagents were used to prepare the appropriate concentration of the internal standard-containing precipitant.
Incubation of sample: the bacteriostatic agent ProClin was added to the plasma of each genera (human, cynomolgus monkey, ICR mouse) and PBS containing 1% BSA, and the final concentration of ProClin was 0.1%, Sterile operations were adopted. 40 μL working solution of test substance and 360 μL of human plasma were mixed to prepare 200 μg/mL of incubation sample. The plate was sealed with a film, and then incubated at 37° C. under 5% CO2 in an incubator, with a shaking speed of 80 times/mm. At 0 h, 4 h, 24 h, 2 d, 3 d, 7 d, 10 d, 14 d, 17 d, 21 d and 28 d, 20 μL of plasma sample was transferred, to which was added 200 μL of precipitant (containing internal standard), and completely mixed to precipitate the proteins.
All samples were subject to protein precipitating, and then centrifuged to collect the supernatant, which was diluted with water, and analyzed by LC-MS/MS.

For orientation: EC50 means the concentration that produces a half-maximal response. As for `CC[C@@]1(O)C(=O)OCc2c1cc1n(c2=O)Cc2c-1nc1cc3c(cc1c2CCCO)OCO3` [Example A1.9, (S)-7-ethyl-7-hydroxy-14-(3-hydroxypropyl)-10,13-dihydro-11H-[1,3]dioxolo[4,5-g]pyrano[3′,4′:6,7]indolizino[1,2-b]quinolin-8,11(7H)-dione], the EC50 with HCC1806 cells is 1.9 nM; in the data set with PANC-1 cells, 94.5 nM; with NCl-H322M cells it was 30.4 nM; with NCl-H358 cells, 60.8 nM; in the data set with HT29 cells it was 57.5 nM. Besides, in data set [1], the Kp is at most 18. In addition, the “Release ratio (%)” value was 0.14% in data set [2] (day 0); 0.10% in data set [2] (day 0.17); 0.11% in data set [2] (day 1); 0.16% in data set [2] (day 2); 0.14% in data set [2] (day 3); 0.19% in data set [2] (day 7). Besides, the “Release ratio (%)” value in data set [2] (day 10) is listed as 0.24%; in data set [2] (day 14) it was 0.35%; in data set [2] (day 17), 0.40%; in data set [2] (day 21) it was 0.46%; in data set [2] (day 28), 0.82%.
